Measurements: ChEMBL document CHEMBL1144098, “Laxifloranone, a new phloroglucinol derivative from Marila laxiflora” (J Nat Prod, 1999)
In brackets after ≈: the same amount, converted by molar mass. Activity calls are given as the source filed them. The calls are words filed in the database; no cut-off is given here.

Legend:
[1] = tested on: Human immunodeficiency virus 1; assay: Antiviral activity against HIV1 in human CEM-SS cells assessed inhibition of virus-induced cytopathic effects; type: functional, organism-based
[2] = tested on: Human immunodeficiency virus 1; assay: Antiviral activity against HIV1 in human CEM-SS cells assessed as cytoprotection against virus-induced cytopathogenicity; type: functional
[3] = Human immunodeficiency virus 1, CEM-SS

## CCOC(=O)NN(OC(=O)C[C@H](c1ccccc1)[C@@]12C(=O)[C@@](CC=C(C)C)(C[C@@H](CC=C(C)C)C1(C)C)C(=O)C(C(=O)CC(C)C)=C2O)C(=O)OCC
[1]
  Activity: inactive
[2]
  Activity: inactive

## CC(C)=CC[C@@H]1C[C@@]2(CC=C(C)C)C(=O)C(C(=O)CC(C)C)=C(O)[C@]([C@H](CC(=O)O)c3ccccc3)(C2=O)C1(C)C [LAXIFLORANONE]
[1]; [3]
  EC50: 0.62 µg/mL (≈ 1.1 µM)
  IC50: 6.6 µg/mL (≈ 11.7 µM)
[2]
  Activity: 80%
